Experimental data taken from US9862674B2, “Therapeutic compounds and methods of use” (University of Florida Research Foundation, Inc., priority 2007, dated 2018).

Legend:
5HT2C receptors [1] = target: T1, 5HT2C receptors (Homo sapiens, UniProt P28335); test: Radioreceptor saturation and competition binding, [3H]-mesulergine labeled 5-HT2C receptor membranes from transfected CHO-K1 cells
T1 sequence (P28335 33-458): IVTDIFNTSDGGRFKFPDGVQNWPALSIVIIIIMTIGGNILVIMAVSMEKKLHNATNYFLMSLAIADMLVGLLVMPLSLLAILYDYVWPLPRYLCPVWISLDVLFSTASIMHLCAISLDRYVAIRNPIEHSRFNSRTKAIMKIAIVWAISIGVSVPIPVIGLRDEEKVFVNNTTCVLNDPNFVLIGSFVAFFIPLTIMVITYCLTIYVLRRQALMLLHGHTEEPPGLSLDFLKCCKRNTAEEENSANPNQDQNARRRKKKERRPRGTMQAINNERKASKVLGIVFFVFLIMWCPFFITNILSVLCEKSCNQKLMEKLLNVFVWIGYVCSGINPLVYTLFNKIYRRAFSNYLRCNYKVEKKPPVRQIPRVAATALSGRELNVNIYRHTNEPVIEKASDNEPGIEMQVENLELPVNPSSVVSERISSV

5HT2A receptor [2] = target: T2, 5HT2A receptor (Homo sapiens, UniProt P28223); test: PLC/[3H]-IP formation in CHO cells transiently transfected with human 5HT2A cDNA (agonist and antagonist mode); assay type: cell-based; design: host or cells: CHO-K1 (ATCC CCL-61), transient transfection
T2 sequence (P28223 whole entry): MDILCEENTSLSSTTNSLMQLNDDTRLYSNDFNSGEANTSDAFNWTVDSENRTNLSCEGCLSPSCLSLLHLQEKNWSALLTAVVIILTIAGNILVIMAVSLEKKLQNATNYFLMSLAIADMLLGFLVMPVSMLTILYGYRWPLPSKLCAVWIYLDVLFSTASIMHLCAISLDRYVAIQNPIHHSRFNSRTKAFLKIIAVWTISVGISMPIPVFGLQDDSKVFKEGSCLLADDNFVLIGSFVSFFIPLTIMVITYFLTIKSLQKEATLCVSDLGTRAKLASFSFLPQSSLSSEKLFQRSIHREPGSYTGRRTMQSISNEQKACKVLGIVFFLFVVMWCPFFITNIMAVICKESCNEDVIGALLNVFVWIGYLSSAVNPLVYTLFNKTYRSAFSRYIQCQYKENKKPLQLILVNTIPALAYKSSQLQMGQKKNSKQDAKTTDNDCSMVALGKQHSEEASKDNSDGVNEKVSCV

5HT2A receptor [3] = target: T2, 5HT2A receptor; test: Radioreceptor saturation and competition binding, [3H]-ketanserin labeled 5-HT2A receptor membranes from transfected CHO-K1 cells; design: host or cells: CHO-K1 (ATCC CCL-61), transient transfection; conditions: saturation binding
[4] = tested on: 5HT2C receptors over 5HT2A receptors; conditions: in vitro; cited from earlier work
[5] = tested on: cocaine self-administration; conditions: rat; cited from earlier work
5HT2A receptor [6] = target: T2, 5HT2A receptor; test: PDSP (2005) 5HT2A receptor-mediated PLC/[3H]-IP formation; assay type: cell-based; conditions: concentrations to 10 μM; not shown
5HT2C receptors [7] = target: T1, 5HT2C receptors; test: PDSP (2005) functional activity of APTs at 5HT2C receptors; assay type: cell-based; conditions: preliminary data

## CN(C)C1CCc2cc(-c3ccccc3)ccc2C1 (stereo not shown) [36 (6APT)]
5HT2C receptors [1]
  Ki: 1800 nM

## NCCc1c[nH]c2ccc(O)cc12 [5-HT, 5-hydroxytryptamine]
5HT2A receptor [2]; 5-HT 1.0 μM
  5HT2A PLC/[3H]-IP formation stimulated by agonist: ~250 % basal control
5HT2A receptor [2]; at Emax concentration
  maximal PLC/[3H]-IP formation, 5HT2A: ~300 % basal control activity

## [3H]C([3H])(N1CCC(C(=O)c2ccc(F)cc2)CC1)C([3H])([3H])n1c(=O)[nH]c2ccccc2c1=O [[^3H]-Ketanserin]
5HT2A receptor [3]
  Bmax of 5HT2A receptors labeled: 1.73±0.11 pmol/mg protein

## C[C@H]1CNCCc2ccc(Cl)cc21 [lorcaserin]
[4]
  selectivity for activation of 5HT2C receptors over 5HT2A receptors: 15 fold

## CN(C)C1CCc2c(cccc2-c2cccc(Cl)c2)C1 (stereo not shown) [35 (Cl-5APT)]
5HT2C receptors [1]
  Ki: ~220 nM

## CN(C)C1CCc2c(cccc2-c2cccc(C(F)(F)F)c2)C1 (stereo not shown) [33 (CF3^−5APT)]
5HT2C receptors [1]
  Ki: ~190 nM

## CN(C)C1CCc2cc(-c3cccc(C(F)(F)F)c3)ccc2C1 (stereo not shown) [37 (CF3^−6APT)]
5HT2C receptors [1]
  Ki: ~1500 nM

## Cc1cc2c(cc1Cl)N(C(=O)Nc1ccc(Oc3cccnc3C)nc1)CC2 [SB242084]
[5]
  effect on rate of cocaine self-administration: increases the rate of cocaine self-administration dose-dependently

## CN(C)C1CCc2c(cccc2-c2ccccc2)C1 (stereo not shown) [32 (5APT)]
5HT2A receptor [6]
  activation of 5HT2A receptor-mediated PLC/[3H]-IP formation (PDSP): did not activate
5HT2C receptors [1]
  Ki: 320 ± 11 nM
5HT2C receptors [7]
  EC50: ~80 nM
  Emax at 5HT2C (PDSP): ~75 % 5HT value
  functional character at 5HT2C (PDSP): moderate potency partial agonist

## CN(C)C1CCc2cc(-c3cccc(Br)c3)ccc2C1 (stereo not shown) [40 (Br-6APT)]
5HT2C receptors [1]
  Ki: 540 ± 10 nM

## COc1cccc([C@H](O)C2CCN(CCc3ccc(F)cc3)CC2)c1OC [M100907]
[5]
  effect on rate of cocaine self-administration: does not alter responding rate
